From patent publication US20090227619A1, “Harmine derivatives, intermediates used in their preparations, preparation processes and use therefo” (priority 2003, published 2009)
Where two headings read alike, the source gives them in different places.

Key:
Lovo = experiment: In vitro cytotoxicity, IC50 by MTT method, Lovo; assay type: cell-based; details: Homo sapiens
How it was run: (§1)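 Cells in RPMI1640 with 10% FBS at 37° C, 5% CO2 were seeded at 10^5/ml and exposed to a compound concentration gradient for 48 h, at least three replicates, solvent controls.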

PLA-801 = experiment: In vitro cytotoxicity, IC50 by MTT method, PLA-801; assay type: cell-based
How it was run: as §1

Bel-7402 = experiment: In vitro cytotoxicity, IC50 by MTT method, Bel-7402; assay type: cell-based; details: Homo sapiens, Bel-7402
How it was run: as §1

Kunming mice = details: summary Table 34, compounds marked *, results [153] of the previous tests; in mg/kg; cited from earlier work
HepG2 = experiment: In vitro cytotoxicity, IC50 by MTT method, HepG2; assay type: cell-based, human; details: Homo sapiens
How it was run: as §1

BGC-823 = experiment: In vitro cytotoxicity, IC50 by MTT method, BGC-823; assay type: cell-based; details: Homo sapiens, BGC-823
How it was run: as §1

Hela = experiment: In vitro cytotoxicity, IC50 by MTT method, Hela; assay type: cell-based; details: Homo sapiens
How it was run: as §1

CT-DNA [1] = experiment: DNA thermal denaturation, determination of ΔTm; assay type: binding; details: CT-DNA thermal denaturation; 20 uM compound; Tm of CT-DNA alone 61° C.
How it was run: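 CT-DNA at 15 ug/ml in PE buffer (1 mM Na2HPO4, 0.1 mM EDTA, pH 7.6), heated at 0.5° C./min from 25 to 95° C. Tm taken as hyperchromic transition mid-point; ΔTm = Tm of drug-DNA complex minus Tm of DNA alone, mean of three runs.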

NIH3T3 = experiment: In vitro cytotoxicity, IC50 by MTT method, NIH3T3; assay type: cell-based; details: Mus musculus
How it was run: as §1

CT-DNA [2] = experiment: UV absorption spectrum method with CT-DNA; assay type: binding; details: CT-DNA 40 ug/ml, compound 20 uM, 37° C. for 2 h, OD at 260 nm
[3] = comparison table 43, in vivo, Lewis lung cancer
[4] = comparison table 43, in vivo, S180 sarcoma
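Wherever Inhibition rate (%) Lewis cancer is given: mice implanted subcutaneously in the axilla with Lewis lung tumor cells, treated starting the following day, killed roughly three weeks after implantation.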

COc1ccc2c3ccnc(C)c3n(C)c2c1 [Compound 2, 7-methoxyl-1,9-dimethyl-β-carboline]
IC50 (Lovo; Lovo, MTT, read-out: IC50): 40 µM
IC50 (PLA-801; PLA-801, MTT, read-out: IC50): 30 µM
IC50 (Bel-7402; BeI7402, MTT, read-out: IC50): 60 µM
LD50 (Kunming mice): 28.92
Inhibition rate (%) Lewis cancer (Lewis lung cancer; [3]): 38.1%
IC50 (HepG2; HepG2, MTT, read-out: IC50): 20 µM
IC50 (BGC-823; BGC823, MTT, read-out: IC50): 50 µM
IC50 (Hela; Hela, MTT, read-out: IC50): 10 µM
ΔTm (CT-DNA [1]): 5.3 °C
Inhibition rate (%) S180 sarcomata (S180 sarcoma; [4]): 32.1%
IC50 (NIH3T3; NIH3T3, MTT, read-out: IC50): 40 µM

CCn1c2cc(OC)ccc2c2ccnc(C)c21 [Compound 3, 7-methoxyl-9-ethyl-1-methyl-β-carboline]
IC50 (Lovo; LoVo): 170 µM
IC50 (PLA-801): 20 µM
IC50 (Bel-7402): 30 µM
LD50 (Kunming mice): 24.25
Inhibition rate (%) Lewis cancer (Lewis lung cancer; mouse, in vivo): 42.0%
IC50 (HepG2; HepG2): 10 µM
IC50 (BGC-823): 50 µM
Influence on the UV absorption of DNA (CT-DNA [2]): reduce the UV absorption of DNA
IC50 (Hela; HeLa): 20 µM
ΔTm (CT-DNA [1]): 7.3 °C
Inhibition rate (%) S180 sarcomata (S180 sarcoma; mouse, in vivo): 37.6%
IC50 (NIH3T3; NIH3T3): 70 µM

CCCCn1c2cc(OC)ccc2c2ccnc(C)c21 [Compound 4, 7-methoxyl-9-n-butyl-1-methyl-β-carboline]
IC50 (Lovo; Lovo, MTT, read-out: IC50): 90 µM
IC50 (PLA-801; PLA-801, MTT, read-out: IC50): 110 µM
IC50 (Bel-7402; BeI7402, MTT, read-out: IC50): 60 µM
LD50 (Kunming mice): 26.45
Inhibition rate (%) Lewis cancer (Lewis lung cancer; [3]): 44.0%
IC50 (HepG2; HepG2, MTT, read-out: IC50): 60 µM
IC50 (BGC-823; BGC823, MTT, read-out: IC50): 70 µM
Influence on the UV absorption of DNA (CT-DNA [2]): reduce the UV absorption of DNA
IC50 (Hela; Hela, MTT, read-out: IC50): 30 µM
ΔTm (CT-DNA [1]): 6.7 °C
Inhibition rate (%) S180 sarcomata (S180 sarcoma; [4]): 40.9%
IC50 (NIH3T3; NIH3T3, MTT, read-out: IC50): 40 µM
